Measurements as given in patent US20150335558A1, “NERVE GROWTH INHIBITOR, CUTANEOUS-SENSORY-IRRITATION INHIBITOR, AND MARKER FOR CUTANEOUS-SENSORY-IRRITATION DETECTION” (HOYU CO., LTD., priority 2012, published 2015).

Tests used:
[1] = test system: ICR mice; experiment: Scratch bouts of ICR mice after 10% SDS application (Sample Experiment 1-1); assay type: in vivo, mouse; conditions: ICR mice of 10% SDS group at Day 3, TRF 30 mg/kg oral, 30 mins. before observation, 60 mins. count
Protocol: The present Sample Experiment was conducted using ICR mice, and an anionic surfactant, namely, sodium dodecyl sulfate (SDS), was used as a stimulating substance to analyze the scratch bouts of mice. After SDS had been applied, terfenadine (TRF) was administered as an antihistamine to determine its effect on scratch bouts.
Male ICR mice at ages of 7 to 8 weeks, purchased from Japan SLC, were used. The mice were given solid feed under free water supply and subjected to preliminary rearing for 7 days or longer under a constant temperature/constant humidity environment with a temperature of 22±2° C., and a humidity of 55±10% before they were used in the test. The mice for use were used in the test at least 3 days after shearing/depilating the rostral back of each mouse. […]
The scratch bouts of mice were performed in view of the Kuraishi et al. report. That is, a single mouse was put in each chamber of the 4 divided sections in an acrylic box (13×9×35 cm) to be acclimated for at least an hour, and they were video recorded in an environment without any person for at least an hour a day from the day of applying the above 10% SDS aqueous solution (Day 0) to the 4th day after application (Day 4) to record their movement. Then, by watching the video, the number of scratch bouts against the rostral back by the hind leg was counted. […]

[2] = test system: histamine and active HDC (53 kDa) in mouse epidermis and dermis; experiment: Histamine amount and HDC activation in ICR mouse skin after 10% sodium laurate (Sample Experiment 3); assay type: in vivo; conditions: ICR mice
Protocol: Male ICR mice at ages of 7 to 8 weeks, purchased from Japan SLC, were used. They were given solid feed under free water supply and subjected to preliminary rearing for 7 days or longer under a constant temperature/constant humidity environment with a temperature of 22±2° C., and a humidity of 55±10% before they were used in the test. The mice for use were subjected to the test at least 3 days after shearing/depilating of the rostral back. A 10% aqueous solution obtained by dissolving SL in distilled water was applied as a stimulating substance against the skin at 50 μL to the sheared/depilated rostral back of the mice mentioned above. Distilled water was applied to the solvent control group (Vehicle). Note concerning FIG. 5 and FIG. 6 to be described later that the mice that were not treated with the above SL aqueous solution or distilled water are called “NT (not treated).” The amount of histamine in skin was measured before applying a surfactant, 2 hrs. after application, and 24 hrs. after application (the time of application was set to 0 hr.). Skins were collected while the mice were under anesthesia after perfusion with a phosphate buffer solution (PBS) using the cardiac blood circulation system (punched out with a biopsy punch in a circular shape of a diameter of 18 mm). The amounts of histamine in the collected skins were measured. After the collected skins were immersed in PBS at 60° C. for 30 secs., they were separated into the epidermis and the dermis. Then, the amounts of histamine in the epidermis and the dermis were measured using the measurement kit. To measure the amount of histamine, tissues of both the epidermis and the dermis were pulverized to create tissue suspensions, which were subjected to centrifugation, then supernatants were collected to measure the amounts of histamine in the supernatants.

[3] = test system: mast cell deficient mice (WBB6F1-W/W^V) and normal control mice (WBB6F1-+/+); experiment: Scratch bouts of mice after 10% sodium laurate application (Sample Experiment 2); assay type: in vivo, mouse; conditions: 10% SL aqueous solution 50 μL single application, 2 hrs. after application, both mast cell deficient and normal control mice
Protocol: Male mast cell deficient mice at ages of 7 to 8 weeks (WBB6F1-W/W^V mouse), purchased from Japan SLC, and normal control mice that are wild mice at ages of 7 to 8 weeks (WBB6F1-+/+mouse) were used. They were given solid feed under free water supply and subjected to preliminary rearing for 7 days or longer under a constant temperature/constant humidity environment with a temperature of 22±2° C., and a humidity of 55±10% before they were used in the test. The mice for use were subjected to the test at least 3 days after shearing/depilating of the rostral back. […] That is, a single mouse was put in each of the 4 divided sections of an acrylic box (13×9×35 cm) to be acclimated for at least 1 hr., and they were video recorded in an environment without any person to record their action. Then, by watching the video, the number of scratch bouts against the rostral back by the hind leg was counted. A series of scratching movements (movements that include scratching the rostal back, where the solution is applied, with the hind leg, then dropping the hind leg to the ground) was counted as 1 count, and the number of times scratching was performed in 60 mins. was counted by visual observation. […]

[4] = 2 hrs. after 10% SL application
[5] = 24 hrs. after 10% SL application

`CC(C)(C)c1ccc(C(O)CCCN2CCC(C(O)(c3ccccc3)c3ccccc3)CC2)cc1` (stereo not shown) [TRF, terfenadine] was tested, and the “scratch bouts of SDS-treated mice after TRF, After vs Before” value [1] was “effectively suppressed”.
With `CCCCCCCCCCCC(=O)[O-].[Na+]` [SL, sodium laurate] the “active HDC (53 kDa) in mouse epidermis” value [2, 4] was “increased significantly”, the “histamine level in the epidermis” value [2, 4] was “increased” and the “active HDC (53 kDa) in mouse epidermis” value [2, 5] was “returned to the pre-application level”. The “histamine level in the epidermis” value [2, 5] was “returned to the pre-application level”, the “histamine level of the dermis” value ([2]; before, 2 hrs. and 24 hrs. after 10% SL application) was “no substantial change was observed” and the “scratch bouts of mice (number in 60 mins.) after stimulating substance” value [3] was “clearly increased”.
